Reference: patent publication US20250025442A1, “BCAA-Lowering Compounds for Prevention and/or Treatment of Alzheimer's Disease and Related Disorders” (Texas Tech University System, priority 2020, published 2025)

How the values were obtained:
plasma BCAAs = conditions: mice; cited from earlier work
5xFAD mice = assay: BT2 daily ip injection for one month in 5xFAD mice; type: in vivo
Source text: These transgenic mice develop amyloid plaques and neuroinflammation at as early as 1.5-2 months of age^7, thus allowing the inventors to investigate the role of BCAAs in AD-related brain pathology when they are young. […] Next, the inventors examined amyloid and Tau pathology in the cortex.

BCKDH kinase = conditions: cited from earlier work
[1] = in hepatocytes; cited from earlier work
[2] = CD-1 mice, in vivo pharmacokinetics study; cited from earlier work

Compound | plasma BCAAs (plasma BCAAs) | increase of tyrosine hydroxylase (TH) protein level (5xFAD mice; 5xFAD mice, p=0.07) | blood glucose (5xFAD mice; BT2-treated vs vehicle-treated 5xFAD mice) | Aβ-42 level (5xFAD mice; cortex, 5xFAD mice) | elevated Aβ-degrading enzyme IDE (5xFAD mice; cortex, 5xFAD mice) | increase of DA (5xFAD mice; cortex, BT2-treated 5xFAD mice) | increase of DOPAC (5xFAD mice; cortex, BT2-treated 5xFAD mice) | GSK3β (5xFAD mice; cortex, after BT2 treatment) | BACE1 (β-secretase) (5xFAD mice; hippocampus, 5xFAD mice) | NE level (5xFAD mice; hippocampus, 5xFAD mice) | mRNA of NF-κB (inflammation) (5xFAD mice; hippocampus, 5xFAD mice) | mRNA of PERK (ER stress) (5xFAD mice; hippocampus, 5xFAD mice) | higher 5-HT (5xFAD mice; hippocampus, after BT2 treatment, p<0.05) | higher DA (5xFAD mice; hippocampus, after BT2 treatment, p=0.08) | inhibit BCKDH kinase (BCKDH kinase) | Half-life [1] | clearance rate [2]
O=C(O)c1sc2cc(Cl)ccc2c1Cl [BT2, 3,6-dichlorobenzo[b]thiophene-2-carboxylic acid] | lowering plasma BCAAs | ~400% | markedly decrease | completely rescued | 70% | 180% | 300% | significantly reduced | markedly lowered | fully restored | decreased | decreased | 50% | 40% | effectively inhibit | – | –
(S)-α-chloro-phenylpropionic acid [(S)-CPP] | lowering plasma BCAAs | – | – | – | – | – | – | – | – | – | – | – | – | – | effectively inhibit | ~7 h | 0.113 mL/min
